Values of other authors in US9744133B2, “Enhanced stability of novel liquid compositions” (Pfizer Inc., priority 2013, dated 2017).

Details: 25° C.

SMILES: COc1ccccc1OCC(O)CO (stereo not shown) [Guaifenesin]
- Solubility in water: approximately 4 % by weight
